# Results: US6723897B2, “Methods for controlling gibberellin levels” (Monsanto Technology, LLC, priority 1998, dated 2004)
# Assays:
# [1] = Distribution of 14C label in soybean plant parts after seed treatment
# Protocol: ^14C-radiolabelled compounds are obtained from Lew Mander (Australian National University). ^14C-GA3 is dissolved in water:ethanol, 80:20, v/v; ^14C-GA9 and ^14C-GA12 are dissolved in 100% ethanol. Seeds of Asgrow 3237 soybeans are treated separately with solutions of each of the ^14C-radiolabelled compounds (1.7-6.8 μg; 10-40 ppm; 111,000-2,000,000 dpm/seed) by placing one to four μl of the dosing solution directly on the seed coat (^14C-GA3, GA9, and GA12), or on the hilum portion of the seed (^14C-GA3). After evaporation of the carrier solvent (approx. one hour), the treated seed is planted in containers containing approximately 30 gm of Metromix-350, and transferred to a growth chamber. Plants are grown under a 12 hour light/12 hour dark regime at 92° F. (33° C.)and 75% humidity. The pattern of uptake and translocation of ^14C-radioactivity in treated seed is monitored up to 12 days past initial treatment. For most experiments, three replicate plants are harvested at one hour after treatment, one day after treatment (DAT), two DAT, three DAT, six or seven DAT, and 12 DAT. At the time of each harvest, plants are divided into leaves, epicotyl, cotyledon, hypocotyl, and roots. The level of ^14C-radioactivity in different plant parts is determined by extraction of plant tissues with aqueous methanol and scintillation counting. The extent of metabolism of the ^14C-labelled GA compounds in planta is determined by HPLC analysis of plant extracts. The details are as follows.
# The general extraction procedure consisted of blending the plant parts in a high speed polytron tissue homogenizer for 1-5 minutes with 10-20 ml of ice-cold methanol:water, 80:20, v/v, followed by vacuum filtration through a Whatman glass fiber filter. The filter cake is re-extracted as necessary using the procedure described above until an insignificant amount of radioactivity is removed. Prior to combining the extracts from each sample, aliquots are weighed and analyzed by liquid scintillation counting (LSC) to determine the amount of extracted radioactivity in each extract. Aliquots of the air-dried filter cakes are combusted and analyzed by LSC in order to determine the amount of non-extracted radioactivity. The extracts are combined and, when necessary, concentrated by rotary evaporation at a bath temperature of less than 35° C. to a small volume for analysis by HPLC to determine the extent of metabolism of the ^14C-labelled GA compounds in planta.
# [2] = test system: wild-type soybeans (line A3237); test: Summary of first two greenhouse experiments, elongation of wild-type soybeans
# In short: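 Seeds of wild-type A3237 or GA-deficient dwarf line 719 imbibed 6 h in ethanol-water compound solutions (0.25, 0.025, 0.0025 mg/ml; GA9 at 0.125, 0.0125, 0.00125 mg/ml; Experiment I 0.25 mg/ml only), 20 seeds per treatment, then grown in greenhouse. Dwarf/intermediate/tall counts, plant height and rescue uniformity recorded after three weeks.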
# [3] = test system: transgenic line 719 soybean; test: Field trial of seed coatings under soil compaction / different soils, GA-deficient soybean; format: in vivo, Glycine max; settings: for Count (emergence) / Dwarfs (number of dwarfs not rescued) / Dwarfs (number not rescued): Line 719
# [4] = Heavy soil - Loose, target rate 0.5 μg/seed, Table 23
# [5] = Heavy soil - Loose, target rate 4.0 μg/seed, Table 23
# [6] = Heavy soil - Loose, target rate 8.0 μg/seed, Table 23
# [7] = Heavy soil - Loose, target rate 16.0 μg/seed, Table 23
# [8] = Heavy soil - compacted, target rate 0.5 μg/seed, Table 23
# [9] = Heavy soil - compacted, target rate 4.0 μg/seed, Table 23
# [10] = Heavy soil - compacted, target rate 8.0 μg/seed, Table 23
# [11] = Heavy soil - compacted, target rate 16.0 μg/seed, Table 23
# [12] = Heavy soil - loose, target rate 0.5 μg/seed, Table 22
# [13] = Heavy soil - loose, target rate 2.0 μg/seed, Table 22
# [14] = Light soil - Compacted, target rate 0.5 μg/seed, Table 22
# [15] = Light soil - Compacted, target rate 2.0 μg/seed, Table 22
# [16] = Light soil - Loose, target rate 0.5 μg/seed, Table 24
# [17] = Light soil - Loose, target rate 2.0 μg/seed, Table 24
# [18] = Light soil - Loose, target rate 4.0 μg/seed, Table 24
# [19] = Light soil - compacted, target rate 0.5 μg/seed, Table 24
# [20] = Light soil - compacted, target rate 2.0 μg/seed, Table 24
# [21] = Light soil - compacted, target rate 4.0 μg/seed, Table 24
compound,measurement,setting,value
"C=C1C[C@]23C[C@@]1(O)CC[C@H]2[C@@]12C=C[C@H](O)[C@@](C)(C(=O)O1)[C@H]2[C@@H]3C(=O)O [GA3, gibberellic acid]","^14C Label Distribution (% of dose), Cotyledon",[1]; 3 DAP,85 % of dose
same,"^14C Label Distribution (% of dose), Hypocotyl",[1]; 3 DAP,1.5 % of dose
same,"^14C Label Distribution (% of dose), Root",[1]; 3 DAP,0.5 % of dose
same,"^14C Label Distribution (% of dose), Cotyledon",[1]; 12 DAP,72 % of dose
same,"^14C Label Distribution (% of dose), Epicotyl",[1]; 12 DAP,0.2 % of dose
same,"^14C Label Distribution (% of dose), Hypocotyl",[1]; 12 DAP,1.4 % of dose
same,"^14C Label Distribution (% of dose), Leaves",[1]; 12 DAP,0.9 % of dose
same,"^14C Label Distribution (% of dose), Root",[1]; 12 DAP,2.8 % of dose
same,Elongation of wild-type soybeans,[2]; 0.0025 mg/ml solution (ethanol-water),+
same,Elongation of wild-type soybeans,[2]; 0.025 mg/ml solution (ethanol-water),+
same,Elongation of wild-type soybeans,[2]; 0.25 mg/ml solution (ethanol-water),+
same,"% Emergence, Heavy Soil-Loose",[3]; 0.1 μg/seed,78%
same,"% Emergence, Light Soil-Compact",[3]; 0.1 μg/seed,59%
same,"% Rescue, Heavy Soil-Loose",[3]; 0.1 μg/seed,80%
same,"% Rescue, Light Soil-Compact",[3]; 0.1 μg/seed,100%
same,"% Emergence, Heavy Soil-Loose",[3]; 2.0 μg/seed,66%
same,"% Emergence, Light Soil-Compact",[3]; 2.0 μg/seed,51%
same,"% Rescue, Heavy Soil-Loose",[3]; 2.0 μg/seed,93%
same,"% Rescue, Light Soil-Compact",[3]; 2.0 μg/seed,100%
same,Count (emergence),[3]; [4],27.3 cd
same,Dwarfs (number of dwarfs not rescued),[3]; [4],2.0 cde
same,Count (emergence),[3]; [5],14.3 f
same,Dwarfs (number of dwarfs not rescued),[3]; [5],0 e
same,Count (emergence),[3]; [6],35.3 abc
same,Dwarfs (number of dwarfs not rescued),[3]; [6],0.7 cde
same,Count (emergence),[3]; [7],30.7 bcd
same,Dwarfs (number of dwarfs not rescued),[3]; [7],0 e
same,Count (emergence),[3]; [8],7.7 efg
same,Dwarfs (number of dwarfs not rescued),[3]; [8],0.3 cd
same,Dwarfs (number of dwarfs not rescued),"[3]; Heavy soil - compacted, target rate 2.0 μg/seed, Table 23",0 days
same,Count (emergence),[3]; [9],3.3 fg
same,Dwarfs (number of dwarfs not rescued),[3]; [9],0 days
same,Count (emergence),[3]; [10],8.7 g·days
same,Dwarfs (number of dwarfs not rescued),[3]; [10],0 days
same,Count (emergence),[3]; [11],12.0 b-e
same,Dwarfs (number of dwarfs not rescued),[3]; [11],0 days
same,Count (emergence),[3]; [12],27 cd
same,Dwarfs (number of dwarfs not rescued),[3]; [12],2.0 cde
same,Count (emergence),[3]; [13],25 de
same,Dwarfs (number of dwarfs not rescued),[3]; [13],0.7 cde
same,Count (emergence),[3]; [14],22 efg
same,Dwarfs (number of dwarfs not rescued),[3]; [14],0 days
same,Count (emergence),[3]; [15],19 fg
same,Dwarfs (number of dwarfs not rescued),[3]; [15],0 days
same,Count (emergence),[3]; [16],45.0 ab
same,Dwarfs (number not rescued),[3]; [16],0 e
same,Count (emergence),[3]; [17],43.7 ab
same,Dwarfs (number not rescued),[3]; [17],0 e
same,Count (emergence),[3]; [18],39.3 b
same,Dwarfs (number not rescued),[3]; [18],0 e
same,Count (emergence),[3]; [19],1.2e+16 fg
same,Dwarfs (number not rescued),[3]; [19],0
same,Count (emergence),[3]; [20],19.3 fg
same,Dwarfs (number not rescued),[3]; [20],0
same,Count (emergence),[3]; [21],26.3 c-f
same,Dwarfs (number not rescued),[3]; [21],0
same,rank of potential for rescuing GA-deficient dwarf soybeans without decreasing emergence,[3]; based on the last two field trials,GA9>GA5>GA3-3-acetate>GA3>GA12
same,best to least selectivity order,"[3]; emergence under soil compaction, margin of selectivity, rescue without overelongation, Table 22",GA9>GA5>GA3-3-acetate>GA3
